Assay results as given in paper PMC11249646, “Small-Molecule Disruptors of the Interaction between Calcium- and Integrin-Binding Protein 1 and Integrin αIIbβ3 as Novel Antiplatelet Agents” (ACS Pharmacology & Translational Science, 2024).
Where two headings read alike, the source gives them in different places.

Assays:
Format in all cases: binding
[1] = target: T1, CIB1 and αIIb interaction (GST-CIB1 : F-αIIb peptide) (Homo sapiens, UniProt Q99828); experiment: FP assay, 384-well format (screen); parameters: 384-well SCREEN Efficacy (%): concentration or dose not given beside the values; conditions: F-αIIb peptide; for 384-well SCREEN Confirm?: YES/NO; for IC50: read-out: 384-well SCREEN IC50
T1 construct: made in house; host or cells: BL-21 plus RIL cells (E. coli)
T1 sequence (Q99828 1-191): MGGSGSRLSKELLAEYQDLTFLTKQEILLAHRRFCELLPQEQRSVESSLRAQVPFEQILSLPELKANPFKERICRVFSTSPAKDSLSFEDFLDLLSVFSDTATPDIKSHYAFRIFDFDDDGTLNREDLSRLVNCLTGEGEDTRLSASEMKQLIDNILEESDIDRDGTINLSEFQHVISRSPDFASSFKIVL

[2] = target: T2, GST-CIB1 : F-scrambled peptide (Homo sapiens, UniProt Q99828); experiment: FP scrambled-peptide counter screen, 384-well format; conditions: F-scrambled peptide; for 384-well COUNTERSCREEN Confirm?: *: Curve in opposite direction; for IC50: read-out: 384-well COUNTERSCREEN IC50
T2 construct: made in house; host or cells: BL-21 plus RIL cells (E. coli)
T2 sequence (Q99828 1-191): T1 sequence (Q99828 1-191)

[3] = target: T3, CIB1 and αIIb interaction (CIB1-GST : F-αIIb peptide) (Homo sapiens, UniProt Q99828); experiment: FP assay, 1536-well qHTS format (primary and confirmatory screen); conditions: for CONFIRMATORY SCREEN Confirm?: YES/NO call; for CONFIRMATORY SCREEN Curve Class: qHTS curve class; for CONFIRMATORY SCREEN Curve Class / Curve Class: negative sign = inhibitory curve; for CONFIRMATORY SCREEN Efficacy (%) / Efficacy (%): negative = inhibition
T3 construct: made in house; host or cells: BL-21 plus RIL cells (E. coli)
T3 sequence (Q99828 1-191): T1 sequence (Q99828 1-191)

[4] = target: T2, GST-CIB1 : F-scrambled peptide; experiment: FP scrambled-peptide counter screen, 1536-well format; conditions: scrambled-peptide counterscreen; for COUNTERSCREEN Confirm?: YES/NO call; for COUNTERSCREEN Curve Class: qHTS curve class; for IC50: read-out: COUNTERSCREEN IC50
[5] = confirmatory screen, read-out: CONFIRMATORY SCREEN IC50
[6] = qHTS FP screen hits, Table S2, one class per curve where COUNT > 1
[7] = qHTS FP screen hits, Table S2, read-out: IC50
[8] = qHTS primary screen hits, Table S2
[9] = qHTS primary screen hits, Table S2, several classes where COUNT > 1
[10] = qHTS primary screen hits, Table S2, read-out: IC50

| SMILES | 384-well SCREEN Efficacy (%) [1] | 384-well SCREEN Confirm? [1] | IC50 [1] | 384-well COUNTERSCREEN Efficacy (%) [2] | 384-well COUNTERSCREEN Confirm? [2] | IC50 [2] | CONFIRMATORY SCREEN Confirm? ([3]; confirmatory screen) | CONFIRMATORY SCREEN Curve Class ([3]; confirmatory screen) | CONFIRMATORY SCREEN Efficacy (%) ([3]; confirmatory screen) | IC50 [3, 5] | COUNTERSCREEN Efficacy (%) [4] | COUNTERSCREEN Confirm? [4] | COUNTERSCREEN Curve Class [4] | Efficacy (%) ([3]; qHTS FP screen hits, Table S2) | Curve Class [3, 6] | IC50 [3, 7] | Efficacy (%) [3, 8] | Curve Class [3, 9] | IC50 [3, 10] | IC50 [4] |
| --- | --- | --- | --- | --- | --- | --- | --- | --- | --- | --- | --- | --- | --- | --- | --- | --- | --- | --- | --- | --- |
| O=C(Nc1nc(-c2ccccc2)cs1)c1ccncc1NS(=O)(=O)c1ccc(Cl)cc1.O=C(O)C(F)(F)F [NCGC00344892-02] | 31% | YES | 35.5 µM | 55% | YES | > 120 µM | YES | -1.2 | -69% | 25.1 µM | 13% | YES | 4 | – | – | – | – | – | – | – |
| COC(=O)C12C(=O)C(C)(O)C(=O)C1(C)C(C)=CC1C34CCC(OC3=O)C(C)(CO)C4CCC12C (centres unmarked) [NCGC00380147-01] | 80% | YES | 32.8 µM | -50% | – | 26.4 µM | YES | -2.2 | -42% | 17.8 µM | -27% | YES | 4 | -32% | -2.2 | 28.2 µM | – | – | – | – |
| CC[C@@H](CO)NC(=O)[C@@H]1C=C2c3cccc4[nH]cc(c34)C[C@H]2N(C)C1.O=C(O)/C=C\C(=O)O [NCGC00017258-05] | 80% | YES | 60 µM | 80% | – | – | YES | -2.4 | -34% | – | -16% | YES | 4 | -131% | -2.1 | – | – | – | – | – |
| Cc1ccc(-c2cc(-c3nn(-c4nc(C(=O)O)cs4)c(CC4CC4)c3Cc3ccc(S(N)(=O)=O)c(F)c3)ccc2F)s1.Cl [NCGC00388587-02] | 84% | – | > 120 µM | 242% | – | 50.1 µM | YES | -2.4 | -66% | 20 µM | 32% | YES | 4 | – | – | – | -23% | -1.4 | 28.2 µM | – |
| O=C(Cc1ccc(Cl)c(Cl)c1)Nc1ccc(S(=O)(=O)Nc2nnc(-c3ccccn3)s2)cc1.O=C(O)C(F)(F)F [NCGC00248355-01] | 44% | YES | 11.2 µM | 38% | YES | > 120 µM | YES | -2.1 | -132% | 35.5 µM | -73% | YES | -2.4 | – | – | – | -50% | -1.2 | 25.1 µM | 79.4 µM |
| CCc1ccc(/C=C2/SC(=S)NC2=O)cc1 [NCGC00185994-01] | 44% | YES | 17.8 µM | 68% | YES | > 120 µM | YES | -1.1 | -93% | 8.9 µM | 0% | YES | 4 | -43% | – | 8.2 µM | – | – | – | – |
| COc1cc(/C=C2/N=C(c3ccccc3)OC2=O)c(F)cc1OCc1ccccc1 [NCGC00168015-01] | 22% | – | > 120 µM | 32% | – | > 120 µM | YES | -2.2 | -79% | 44.7 µM | -24% | YES | 4 | – | – | – | -91% | -2.1 | 50.1 µM | – |
| CCC(=O)NC(c1cccs1)c1cc([N+](=O)[O-])c2cccnc2c1O (centres unmarked) [NCGC00182956-10] | 23% | – | > 120 µM | 47% | – | 17.7 µM | YES | -3 | -53% | 50.1 µM | -17% | YES | 4 | -51% | – | 46.6 µM | – | – | – | – |
| N#Cc1cnc(NS(=O)(=O)c2ccc(NC(=O)Cc3ccc(F)c(Cl)c3)cc2)s1.O=C(O)C(F)(F)F [NCGC00343826-01] | 36% | YES | 2.2 µM | 28% | YES | > 120 µM | YES | -1.4 | -50% | – | 24% | YES | 4 | – | – | – | -29% | -1.2 | 2.8 µM | – |
| Cc1ccccc1S(=O)(=O)Nc1cnccc1C(=O)Nc1nc(-c2ccccc2)cs1.O=C(O)C(F)(F)F [NCGC00344941-01] | 35% | YES | 17.8 µM | 20% | YES | > 120 µM | YES | -1.2 | -59% | – | 10% | YES | 4 | – | – | – | -51% | -2.2 | 44.7 µM | – |
| CCc1oc2ccccc2c1C(=O)c1cc(I)c(O)c(I)c1 [NCGC00160408-03] | 31% | – | > 120 µM | 173% | – | 10 µM | YES | -1.2 | -75% | 11.2 µM | 20% | YES | 1.4 | -52% | -2.2 | 39.8 µM | – | – | – | 11.2 µM |
